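Interpolation was linear, between the two tested concentrations surrounding the appropriate level; five concentrations were tested over 48 hours in 96-well plates. At the GI50, growth is halved.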 Active and inactive are the calls of the source. Cut-off read from the data, not from the text of the source: active = GI50 up to about 1.1 µM and inactive = higher.
Assays:
Test in all cases: inhibition of tumour cell growth, NCI panel, 48 h
OVCAR-5 = tested on: OVCAR-5
SR = tested on: SR
KM12 = tested on: KM12
Malme-3M = tested on: Malme-3M
OVCAR-4 = tested on: OVCAR-4
TK-10 = tested on: TK-10
NCI-H460 = tested on: NCI-H460
MDA-MB-435 = tested on: MDA-MB-435
PC-3 = tested on: PC-3
SNB-75 = tested on: SNB-75
UO-31 = tested on: UO-31
UACC-62 = tested on: UACC-62
SF-295 = tested on: SF-295
NCI/ADR-RES = tested on: NCI/ADR-RES
HOP-62 = tested on: HOP-62
MOLT-4 = tested on: MOLT-4
CAKI-1 = tested on: CAKI-1
IGROV-1 = tested on: IGROV-1
RPMI-8226 = tested on: RPMI-8226
K562 = tested on: K562
A549 = tested on: A549
ACHN = tested on: ACHN
NCI-H23 = tested on: NCI-H23
Hs-578T = tested on: Hs-578T
MDA-MB-231 = tested on: MDA-MB-231
SF-268 = tested on: SF-268
SNB-19 = tested on: SNB-19
RXF 393 = tested on: RXF 393
786-0 = tested on: 786-0
UACC-257 = tested on: UACC-257
NCI-H522 = tested on: NCI-H522
DU-145 = tested on: DU-145
HCT-116 = tested on: HCT-116
HL-60 = tested on: HL-60
HCT-15 = tested on: HCT-15
OVCAR-3 = tested on: OVCAR-3
SK-MEL-2 = tested on: SK-MEL-2
A498 = tested on: A498
T47D = tested on: T47D
SW-620 = tested on: SW-620
EKVX = tested on: EKVX
SF-539 = tested on: SF-539
MDA-N = tested on: MDA-N
NCI-H226 = tested on: NCI-H226
HOP-92 = tested on: HOP-92
LOX IMVI = tested on: LOX IMVI
OVCAR-8 = tested on: OVCAR-8
BT-549 = tested on: BT-549
MCF7 = tested on: MCF7
U-251 = tested on: U-251
SN12C = tested on: SN12C
HCC 2998 = tested on: HCC 2998
HT-29 = tested on: HT-29
SK-OV-3 = tested on: SK-OV-3
SK-MEL-28 = tested on: SK-MEL-28
SK-MEL-5 = tested on: SK-MEL-5
CCRF-CEM = tested on: CCRF-CEM
COLO 205 = tested on: COLO 205
M14 = tested on: M14

Measured: GI50

Nc1nc(Cl)c(Cl)c(NCC2(O)CCC2)n1
inactive: OVCAR-5 > 100 µM | SR 47.5 µM | KM12 > 100 µM | Malme-3M 62.7 µM | OVCAR-4 19 µM | TK-10 > 100 µM | NCI-H460 > 100 µM | MDA-MB-435 88.3 µM | PC-3 > 100 µM | SNB-75 > 100 µM | UO-31 31.2 µM | UACC-62 36.2 µM | SF-295 43.9 µM | NCI/ADR-RES 45 µM | HOP-62 92.3 µM | MOLT-4 33 µM | CAKI-1 16.1 µM | IGROV-1 45.6 µM | RPMI-8226 42 µM | K562 24.7 µM | A549 76.4 µM | ACHN > 100 µM | NCI-H23 38.9 µM | Hs-578T 51.3 µM | MDA-MB-231 74.1 µM | SF-268 > 100 µM | SNB-19 > 100 µM | RXF 393 38.4 µM | 786-0 > 100 µM | UACC-257 > 100 µM | NCI-H522 18.3 µM | DU-145 > 100 µM | HCT-116 57.3 µM | HL-60 44 µM | OVCAR-3 51.2 µM | SK-MEL-2 > 100 µM | A498 11.4 µM | T47D 2.76 µM | SW-620 > 100 µM | EKVX 22 µM | SF-539 > 100 µM | MDA-N > 100 µM | NCI-H226 23.6 µM | HOP-92 29.1 µM | LOX IMVI 28.5 µM | OVCAR-8 92.9 µM | BT-549 44.6 µM | MCF7 74.1 µM | U-251 92.7 µM | SN12C > 100 µM | HCC 2998 88.3 µM | HT-29 > 100 µM | SK-OV-3 39.3 µM | SK-MEL-28 > 100 µM | SK-MEL-5 18.8 µM | CCRF-CEM > 100 µM
38.9 µM: HCT-15

NC1(C(=O)OCc2ccccc2)CCCC1
inactive: OVCAR-5 28.4 µM | SR 33.5 µM | KM12 26 µM | Malme-3M 16.5 µM | OVCAR-4 15.1 µM | TK-10 82.4 µM | NCI-H460 43.3 µM | MDA-MB-435 15.1 µM | PC-3 27.2 µM | SNB-75 18 µM | UO-31 15.6 µM | UACC-62 15.9 µM | SF-295 15.9 µM | NCI/ADR-RES 28.6 µM | HOP-62 18.8 µM | MOLT-4 11.8 µM | CAKI-1 19.4 µM | COLO 205 28.1 µM | IGROV-1 18.5 µM | RPMI-8226 14.2 µM | K562 14.8 µM | A549 28.8 µM | ACHN 15.2 µM | M14 14.5 µM | NCI-H23 17.5 µM | Hs-578T 23.7 µM | MDA-MB-231 15.8 µM | SF-268 15.1 µM | SNB-19 21.2 µM | RXF 393 17.4 µM | 786-0 18 µM | UACC-257 19.2 µM | NCI-H522 7.06 µM | DU-145 16.6 µM | HCT-116 18 µM | OVCAR-3 11.6 µM | SK-MEL-2 17.9 µM | A498 41.3 µM | T47D 25.3 µM | SW-620 36.6 µM | EKVX 24.5 µM | SF-539 11.2 µM | MDA-N 20.1 µM | NCI-H226 30.1 µM | HOP-92 14.4 µM | LOX IMVI 18.2 µM | OVCAR-8 12.9 µM | BT-549 17.1 µM | MCF7 25.1 µM | U-251 16.3 µM | SN12C 25.1 µM | HCC 2998 28 µM | HT-29 37.8 µM | SK-OV-3 21.9 µM | SK-MEL-28 22.6 µM | SK-MEL-5 16.6 µM | CCRF-CEM 11.4 µM
active: HL-60 0.21 µM
22.9 µM: HCT-15

O=C1OC(C2Cc3ccc4c(c3C2=O)CCC4)c2ccccc21 (stereo not given)
inactive: OVCAR-5 85.9 µM | SR 38.8 µM | KM12 29.7 µM | Malme-3M 94.4 µM | OVCAR-4 38.1 µM | TK-10 > 100 µM | NCI-H460 50.9 µM | MDA-MB-435 40.5 µM | PC-3 30.5 µM | SNB-75 46 µM | UO-31 45.4 µM | UACC-62 42.2 µM | SF-295 59.6 µM | NCI/ADR-RES 48.2 µM | HOP-62 > 100 µM | MOLT-4 30.9 µM | CAKI-1 > 100 µM | COLO 205 20.7 µM | IGROV-1 82.4 µM | RPMI-8226 25.3 µM | K562 43.3 µM | A549 50 µM | ACHN 38.2 µM | M14 51.1 µM | NCI-H23 55.2 µM | Hs-578T 36.1 µM | MDA-MB-231 > 100 µM | SF-268 42.9 µM | SNB-19 52.4 µM | RXF 393 37.7 µM | 786-0 40.7 µM | UACC-257 46.8 µM | NCI-H522 > 100 µM | DU-145 91.8 µM | HCT-116 45.6 µM | HL-60 27.4 µM | OVCAR-3 28.4 µM | SK-MEL-2 64.9 µM | A498 60.5 µM | T47D 54.6 µM | SW-620 54.5 µM | EKVX 51.2 µM | SF-539 28.2 µM | MDA-N 40.3 µM | NCI-H226 26.1 µM | HOP-92 56.2 µM | LOX IMVI 34.9 µM | OVCAR-8 56.9 µM | BT-549 42.1 µM | MCF7 50.1 µM | U-251 38.8 µM | SN12C 36 µM | HCC 2998 37.4 µM | HT-29 52.8 µM | SK-OV-3 > 100 µM | SK-MEL-28 67.1 µM | SK-MEL-5 43.1 µM | CCRF-CEM 46.9 µM
39.1 µM: HCT-15
